Patent US7968556B2, “Heteroaryl compounds, compositions thereof, and methods of treatment therewith” (Signal Pharmaceuticals, LLC, priority 2006, dated 2011)
pIC50: −log10 of the molar value.

Columns and labels:
mTOR = mTOR (Homo sapiens, UniProt P42345); test: mTOR HTR-FRET Assay; type: biochemical
Procedure: The following is an example of an assay that can be used to determine the mTOR inhibitory activity of a test compound. Reagents are prepared as follows:
“Simple TOR buffer” (used to dilute high glycerol TOR fraction): 10 mM Tris pH 7.4, 10 mM NaCl, 0.1% Tween-20, 1 mM DTT (from 1M stock frozen at −20° C. just prior to use). For convenience a large quantity of “Simple TOR buffer” w/o DTT can be stored at 4° C. It can be brought to room temperature and DTT added just prior to dilution of TOR fraction.
5XKB/5XMn/5×ATP solution (used to dilute substrate GST-p70S6kin 81 a.a. just prior to use) (40 ml screen quantity shown):
Enzyme solution: Dilute TOR fraction 1:14 in “Simple TOR Buffer”. For current lot that is 640 μg/ml TOR fraction diluted 14× to yield 45.7 μg/ml TOR in buffer (i.e. 7.85 ml TOR pooled fraction+102.1 ml Simple TOR buffer=110 ml 14× diluted TOR fraction). Each Enzyme Lot must be QC'd prior to assay.
Substrate solution: This may be prepared just prior to assay if preferred. Dilute 5.3 mg/ml GST-p70S6kinase fragment stock to 3.5 μg/ml (97 nM) working stock in 5XKB/5XMn/5×ATP solution (i.e. 26.41 μL (5.3 mg/ml) GST-p70S6+40 ml 5XKB/5XMn/5×ATP=40 ml 3.5 μg/ml (97 nM)).
Assay Buffer (for dilution of Antibodies used in Antibody Detection Reagent):
Antibody Detection Reagent (this reagent should be made just prior to addition to Assay Plates):
Using PlateTrak program (Screen) or Matrix Pipettor (SAR), 19.5 μL of diluted TOR fraction is added to assay plate in all test, reference or positive control wells. 19.5 μL of “Simple TOR buffer” is added to all negative control wells. If treating multiple plates with the same compounds, can increase volume of enzyme to multiples of 19.5 μL in a tall 384 well polypropylene plate.
Using EP3, 0.5 μl of test, reference or control DMSO is added to each well with mixing. Plates are incubated for 30 minutes at room temperature.
Using PlateTrak program (Screen) or Matrix Pipettor (SAR) 5 μL of 5XKB/5XMn/5×ATP/5× substrate solution is added to each well of the assay plate to start the reaction. The solutions are mixed well and incubated for 2 hours at room temperature.
Using PlateTrak program (Screen) or Matrix Pipettor (SAR) 5 μL of 60 mM EDTA is added to stop the reaction. The solutions are mixed well and allowed to sit for 15-20 minutes before the next step.
Using PlateTrak program (Screen) or Matrix Pipettor (SAR) 10 μl of Antibody Detection Reagent is added. The solutions are mixes well and incubated for 5 hours to O/N to allow antibodies to form complexes with phosphorylated substrate.
Plates are read on AnalystHT using protocol Multi-Method protocol.

IKK-2 = biological target: T1, IKK-2 (Homo sapiens, UniProt O14920, S177E/S181E); test: IKK-2 screening assay (IKK2EE 33P Assay / IKK2EE NEMO HTRF Assay); type: biochemical
T1 sequence (O14920 1-756 S177E/S181E): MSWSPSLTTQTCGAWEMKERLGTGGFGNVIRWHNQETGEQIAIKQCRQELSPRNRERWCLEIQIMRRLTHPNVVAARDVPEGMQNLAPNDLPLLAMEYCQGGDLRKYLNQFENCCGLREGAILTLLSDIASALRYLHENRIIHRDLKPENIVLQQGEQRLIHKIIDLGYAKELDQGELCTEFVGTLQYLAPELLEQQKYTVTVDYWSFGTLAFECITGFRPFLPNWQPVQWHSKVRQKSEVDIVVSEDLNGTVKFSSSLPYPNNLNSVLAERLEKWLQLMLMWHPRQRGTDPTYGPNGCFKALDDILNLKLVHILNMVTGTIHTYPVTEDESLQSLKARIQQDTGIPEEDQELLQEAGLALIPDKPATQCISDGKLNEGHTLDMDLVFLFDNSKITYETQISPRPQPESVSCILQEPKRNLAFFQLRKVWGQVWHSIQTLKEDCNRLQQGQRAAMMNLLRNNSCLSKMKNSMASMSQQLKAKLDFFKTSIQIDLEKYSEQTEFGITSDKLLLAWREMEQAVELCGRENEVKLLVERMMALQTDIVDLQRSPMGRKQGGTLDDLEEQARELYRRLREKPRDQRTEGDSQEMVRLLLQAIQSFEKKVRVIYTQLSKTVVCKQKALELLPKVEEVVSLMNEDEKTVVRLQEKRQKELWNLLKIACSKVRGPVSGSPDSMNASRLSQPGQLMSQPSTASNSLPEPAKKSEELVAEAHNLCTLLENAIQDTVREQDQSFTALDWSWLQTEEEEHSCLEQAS
Procedure: The following is an example of an assay that can be used to determine the IKK2EE inhibitory activity of a test compound.
A reaction buffer (pH 7.8) is prepared containing HEPES (20 mM), MgCl2 (10 mM), EDTA (0.1 mM), DTT (1 mM) and Triton X-100 (0.004%). IKK2EE (0.75 μg/ml is used. GST-IKBα (50 μg/ml) is used as substrate. Adenosine 5′-triphosphate (1.5 μM with ^33P-ATP 5 nCi/μl) is used. Reactions are stopped with trichloroacetic acid (6.25%).
Appropriate amounts of test compounds or controls in 100% DMSO are added to the assay plate. A peptide-substrate solution (PSS) is prepared by adding peptide stock to an appropriate volume of buffer (peptide concentration in the PSS will be about 100 μg/ml). An enzyme-peptide solution (EPS) is prepared by adding enzyme stock to an appropriate volume of PSS (the enzyme concentration in the EPS will be about 1 μg/ml). An ATP solution is prepared by adding ATP stock to an appropriate volume of buffer (the ATP concentration will be 15 μM).
85 μl of EPS is added to the assay wells (or PSS to positive control wells) of 96 well polypropylene plates. The ATP solution is then completed by adding ^33P-ATP (to a final concentration of 50 μCi/ml).
The reaction is initiated by adding 10 μl ATP solution to each well. Plates are shaken from about 12 seconds and allowed to incubate at room temperature for 1 hours. 100 μl of trichloroacetic acid solution (12.5%) is added to stop the reaction and the plates are incubated at room temperature for at least 10 minutes. The assay plates are harvested onto a Millipore Multiscreen harvest Plate FC using an appropriate harvester and the harvest plates are washed with 1×PBS solution for about 10 seconds (continuous flow). Harvest plates are allowed to dry thoroughly and the bottoms of the plates are sealed. 20-50 μl of Microscint20 is added to each well, tops are sealed and plates are read using an appropriate scintillation counter.
A reaction buffer (pH 7.6) is prepared containing HEPES (20 mM), MgCl2 (10 mM), EDTA (0.05 mM), DTT (1 mM) and Triton X-100 (0.004%). IKK2EE-NEMO (0.7 μg/ml is used. GST-IKBα (0.5 μg/ml) is used as substrate. Adenosine 5′-triphosphate (1.5 μM) is used. Detection reagents used are mouse anti-P-IKBα (30 ng/ml), Eu anti-mouse (300 ng/ml) and Cy5 anti-GST (11.5 μg/ml). Reactions are stopped with EDTA (20 mM).
An enzyme solution (ES) is prepared by adding enzyme stock to an appropriate volume of buffer (enzyme concentration in the ES will be about 1.7 ng/ml). A detection mixture (DM) is prepared by adding ATP (final conc. 3.75 μM), mouse anti-P-IKBα (final conc. 75 ng/ml), GST-IKBα (final conc. 1.26 μg/ml), Eu anti-mouse in buffer (final conc. 750 ng/ml).
5 μl of compound (solvated in 10% DMSO) is added to assay wells (or 10% DMSO to control wells) of low binding reaction plates. […] ES is added to assay wells (or buffer to control wells) and the reaction is initiated by adding 10 μl DM to all wells. Plates are incubated at room temperature for 45 minutes. Stop mixture is prepared by adding EDTA (final conc. 70 mM) and Cy5 anti-GST (final conc. 40 μg/ml) to an appropriate volume of buffer. Stop mixture is added and plates are shaken for 20 seconds and incubated at room temperature for at least 3 hours (preferably in the dark). Plates are read on an Analyst HT using Multi-Method HTRF.

NC(=O)c1nc(-c2cccnc2)nc2c1NC(=O)CN2c1ccccc1 [Compound 36, 6-oxo-8-phenyl-2-(pyridin-3-yl)-5,6,7,8-tetrahydropteridine-4-carboxamide]
pIC50 (mTOR): < 4.52
pIC50 (IKK-2): < 4.52
melting point: 294 to 296 °C

NC(=O)c1nc(-c2cccc(O)c2)nc2c1[nH]c(=O)n2-c1ccccc1Cl [Compound 14, 9-(2-chlorophenyl)-2-(3-hydroxyphenyl)-8-oxo-8,9-dihydro-7H-purine-6-carboxamide]
pIC50 (mTOR): 5.30 to 7.00
pIC50 (IKK-2): < 4.52
melting point: 360 to 364 °C

COc1ccccc1-n1c(=O)[nH]c2c(C(N)=O)nc(-c3ccc4cc[nH]c4c3)nc21 [Compound 11, 2-(1H-indol-6-yl)-9-(2-methoxyphenyl)-8-oxo-8,9-dihydro-7H-purine-6-carboxamide]
pIC50 (mTOR): 4.70 to 5.00
pIC50 (IKK-2): < 4.52
melting point: 203 to 204 °C

COc1ncccc1-c1nc(C(N)=O)c2[nH]c(=O)n(-c3ccccc3)c2n1 [Compound 5, 2-(2-methoxypyridin-3-yl)-8-oxo-9-phenyl-8,9-dihydro-7H-purine-6-carboxamide]
pIC50 (mTOR): < 4.52
pIC50 (IKK-2): < 4.52
melting point: 279 to 281 °C

CN(C)C(=O)c1nc(-c2cccnc2)nc2c1[nH]c(=O)n2-c1ccccc1 [Compound 6, N,N-dimethyl-8-oxo-9-phenyl-2-(pyridin-3-yl)-8,9-dihydro-7H-purine-6-carboxamide]
pIC50 (mTOR): < 4.52
pIC50 (IKK-2): < 4.52
melting point: 250 to 252 °C

N#Cc1cccc(-c2nc(C(N)=O)c3[nH]c(=O)n(-c4ccccc4)c3n2)c1 [Compound 27, 2-(3-cyanophenyl)-8-oxo-9-phenyl-8,9-dihydro-7H-purine-6-carboxamide]
pIC50 (mTOR): 4.70 to 5.00
pIC50 (IKK-2): < 4.52
melting point: 328 to 330 °C

NC(=O)c1nc(-c2cccnc2)nc2c1[nH]c(=O)n2Cc1ccccc1 [Compound 1, 9-benzyl-8-oxo-2-(pyridin-3-yl)-8,9-dihydro-7H-purine-6-carboxamide]
pIC50 (mTOR): 4.70 to 5.00
pIC50 (IKK-2): < 4.52
melting point: 334 to 335 °C

Cc1ccccc1-n1c(=O)[nH]c2c(C(N)=O)nc(-c3cccc(O)c3)nc21 [Compound 9, 2-(3-hydroxyphenyl)-8-oxo-9-o-tolyl-8,9-dihydro-7H-purine-6-carboxamide]
pIC50 (mTOR): 5.00 to 5.29
pIC50 (IKK-2): < 4.52
melting point: 366 to 367 °C

CNC(=O)c1nc(-c2cccnc2)nc2c1[nH]c(=O)n2-c1ccccc1 [Compound 2, N-methyl-8-oxo-9-phenyl-2-(pyridin-3-yl)-8,9-dihydro-7H-purine-6-carboxamide]
pIC50 (mTOR): < 4.52
pIC50 (IKK-2): < 4.52
melting point: > 330 °C

COc1ccccc1-n1c(=O)[nH]c2c(C(N)=O)nc(-c3cccc4[nH]ccc34)nc21 [Compound 10, 2-(1H-indol-4-yl)-9-(2-methoxyphenyl)-8-oxo-8,9-dihydro-7H-purine-6-carboxamide]
pIC50 (mTOR): 5.00 to 5.29
pIC50 (IKK-2): < 4.52
melting point: 312 to 313 °C

NC(=O)c1nc(-c2cccnc2)nc2c1ncn2-c1ccccc1 [Compound 35, 9-phenyl-2-(pyridin-3-yl)-9H-purine-6-carboxamide]
pIC50 (mTOR): 4.52 to 4.70
pIC50 (IKK-2): 5.00 to 5.29
melting point: 298 to 299 °C
